Data from US20050096360A1, “Inhibitors of semicarbazide-sensitive amine oxidase (SSAO) and VAP-1 mediated adhesion useful for treatment of diseases” (priority 2003, published 2005).
Read-outs that look alike come from different tables or passages of the source.

Experiments:
[1] = test system: adhesion of human PBMCs to rat HEC transfected with full-length human SSAO/VAP-1; experiment: In vitro adhesion of PBMCs to SSAO/VAP-1-transfected high endothelial cells; type: cell-based; conditions: inhibitors at IC100 concentrations, antibody 10 μg/ml; 3 hr at 37° C.
Experimental: The studies in this Example were carried out in order to determine whether SSAO/VAP-1 transfected into endothelial cells retained the adhesion function and whether it played any role in the adhesion of freshly isolated human PBMCs to these cells. Moreover, the studies were also designed to determine whether blocking of SSAO/VAP-1 would have an impact on the level of adhesion between these two cell types. Adhesion assays were performed using cells labeled with the fluorescent dye Calcein-AM (Molecular Probes, OR, USA) as per the manufacturer's instructions. Briefly, rat lymph node high endothelial cells (HEC; isolation and culture was described in Ager, A. (1987) J. Cell Sci. 87: 133) were plated overnight in 96-well plates (2,000 cells/well). PBMCs (peripheral blood mononuclear cells) (1×10^7) were labeled with 1 ml of 10 μM Calcein-AM for 1 hr at 37° C., washed three times with RPMI, and added to the 96 well plates containing monolayers of HEC cells mock-transfected or transfected with full-length human SSAO/VAP-1 (60,000 PBMCs were plated per well containing 2,000 HEC cells). Adhesion was carried out for 3 hr at 37° C. Non-adherent cells were removed by washing three times with RPMI and fluorescence was measured in a fluorescence plate reader at an excitation wavelength of 485 nm and emission wavelength of 530 nm. Several controls were included, such as HEC cells and PBMCs (labeled and unlabeled) alone.
(§1) These studies were repeated using the adhesion assay as described above to evaluate the inhibitors of the invention. Adhesion blockers used included an anti-human VAP-1 monoclonal antibody (Serotec, Oxford, UK), neuramidase (a sialidase, because SSAO/VAP-1 is a sialoglycoprotein; Sigma), and several function-blocking antibodies to rat adhesion molecules (CD31-PECAM, CD54-ICAM-1, […]-P Selectin). […] Antibodies (10 μg/ml) and neuramidase (5 mU) were incubated with the HECs for 30 min at 37° C.; excess antibody was washed away prior to the addition of the labeled PBMCs. Small-molecule inhibitors were pre-incubated the same way at IC100 concentrations, but the amounts present in the supernatant were not washed away to preserve the IC100 concentration during the adhesion step.

[2] = Acute toxicity studies in mice; type: in vivo; conditions: female, C57B1/6, mouse, in vivo, Day 7 values
Experimental: (§2) Intraperitoneal (i.p.) and intravenous (i.v.) LD50 values for the compounds of Examples 8 and 10, as well as mofegiline, the allylamine compound described in Example 18, were determined in mice. Six-week old C57B1/6 female mice were divided in groups of five and administered a single i.p or i.v. injection of compound dissolved in PBS (10-100 mg/kg in 100 ul i.v.; 30-500 mg/kg in 200 ul i.p.). Control groups were administered the same volume of PBS i.p. or i.v. Appearance and overt behavior were noted daily, and body weight was measured before compound administration (Day 1) and on Days, 3, 5 and 7. After seven days, animals were euthanized and their liver, spleen and kidneys weighted.
(§3) Acute toxicity effects for mofegiline included tremors (40 mg/kg i.v.; 100 mg/kg i.p.) and clonic convulsions and labored breathing (100 mg/kg i.v.; 200 mg/kg i.p.). […] All deaths occurred within 24 hours after drug administration. […] Thus, there is no indication of the cause of death for any of the compounds tested.

C57B1/6 female mice = experiment: Acute toxicity studies in mice; type: in vivo
Experimental: as §2, §3

EAE in C57BL/6 mice = experiment: Experimental autoimmune encephalomyelitis (EAE), MOG 35-55; type: in vivo
Experimental: SSAO/VAP-1 is expressed on the endothelium of inflamed tissues/organs including brain and spinal cord. Its ability to support lymphocyte transendothelial migration may be an important systemic function of SSAO/VAP-1 in inflammatory diseases such as multiple sclerosis and Alzheimer's disease. An analysis of the use of SSAO inhibitors to treat inflammatory disease of the central nervous system (CNS) was performed through the use of an experimental autoimmune encephalomyelitis model (EAE) in C57BL/6 mice. EAE in rodents is a well-characterized and reproducible animal model of multiple sclerosis in human (Benson J. M. et al. (2000) J. Clin. Invest. 106:1031). Multiple sclerosis is a chronic immune-mediated disease of the CNS characterized by pachy perivenular inflammatory infiltrates in areas of demyelination and axonal loss. As an animal model, EAE can be induced in mice by immunization with encephalitogenic myelin antigens in the presence of adjuvant. The pathogenesis of EAE comprises presentation of myelin antigens to T cells, migration of activated T cells to the CNS, and development of inflammation and/or demyelination upon recognition of the same antigens.
Thirty female C57BL/6 mice were immunized subcutaneously (s.c). with myelin oligodendrocyte glycoprotein 35-55 (MOG peptide 35-55) in Complete Freund Adjuvant (CFA) on day 0, followed by i.p. injections of pertussis toxin (one pertussis toxin injection on day 0, a second pertussis toxin injection on day 2). Groups of 10 mice received either the allylamine compound mofegiline (AA, 10 mg/kg/dose, twice daily for 18 consecutive days), methotrexate (2.5 mg/kg/day, every other day (Mon., Weds., Fri.) till day 18) or vehicle control (twice/day for 18 consecutive days) all-starting from one day after the immunization and all administered i.p. Then animals were monitored for body weight, signs of paralysis and death according to a 0-5 scale of scoring system as follows: 1=limp tail or waddling gait with tail tonicity; 2=waddling gait with limp tail (ataxia); 2.5=ataxia with partial limb paralysis; 3=full paralysis of one limb; 3.5=full paralysis of one limb with partial paralysis of second limb; 4=full paralysis of two limbs; 4.5=moribund; 5=death. Results are shown in FIG. 2A, FIG. 2B, and FIG. 2C. […] (p=0.04 by repeated measure analysis to assess the treatment effect. Proper polynomial transformation, with the spacing corresponding to the collection days, was applied to test the time effect). Statistically significant differences in diseases severity between the AA and vehicle-treated groups, continued even after stopping compound administration and were observed until the end of the study (d25) .

SSAO = experiment: IC100 concentrations of SSAO inhibitors used in the adhesion assay; type: biochemical; conditions: FIG. 7 legend
From the text: FIG. 7 depicts the effect of blockage of SSAO/VAP-1 on binding between peripheral blood mononuclear cells (PBMCs) and high endothelial cells (HEC). FIG. 7A is a control experiment showing the effect of various compounds used for treatment on the adhesion of PBMCs to mock-transfected high endothelial cells; a non-treated control is included for comparison (MNT). FIG. 7B is a control experiment showing the effect of various compounds used for treatment on the adhesion of PBMCs to high endothelial cells transfected with VAP-1; a non-treated control is included for comparison (VNT).
as §1

## C#CCN(C)CCCOc1ccc(Cl)cc1Cl [Clorgyline, clorgyline]
[1]
  number of PBMCs adherent to SSAO/VAP-1 transfected HECs: no effect

## NC/C(=C/F)CCc1ccc(F)cc1 [Mofegiline, mofegiline, reference compound]
[2]; ip, single i.p. injection, read-out: LD50 intraperitoneal
  LD50 at 7 days: 200 mg/kg
[2]; iv, single i.v. injection, read-out: LD50 intravenous
  LD50 at 7 days: 70 mg/kg
C57B1/6 female mice; i.p.
  dose causing tremors: 100 mg/kg
C57B1/6 female mice; i.p. (see Table 2)
  dose causing convulsions and labored breathing: 200 mg/kg
C57B1/6 female mice; i.v.
  dose causing clonic convulsions and labored breathing: 100 mg/kg
  dose causing tremors: 40 mg/kg
EAE in C57BL/6 mice; 10 mg/kg/dose i.p. twice daily for 18 days, p=0.04 vs vehicle
  disease severity (clinical score): statistically significant reduction
EAE in C57BL/6 mice; 10 mg/kg/dose i.p. twice daily, dosing period up to day 18, vehicle 80%
  disease incidence (mice affected): 50%
EAE in C57BL/6 mice; 10 mg/kg/dose i.p. twice daily, dosing period, p=0.04
  body weight loss: prevented

## C#CCN(C)Cc1ccccc1 [Pargyline, pargyline]
[1]
  number of PBMCs adherent to SSAO/VAP-1 transfected HECs: no effect

## NNC(N)=O [Semicarbazide, semicarbazide]
SSAO
  IC100 (SSAO): 500 µM
